The source of these data is ChEMBL document CHEMBL1150512, “A new class of angiotensin II receptor antagonists with a novel acidic bioisostere” (Bioorg Med Chem Lett, 1995).

One may read the IC50 as the midpoint of a concentration-inhibition curve. By inhibition in vivo is commonly meant how much of the control response was suppressed. The low end stands for a response near the control, the high end for a response far below the control. What is called bioavailability is dose-corrected exposure relative to a reference, in per cent. Broadly, the logP is the decadic logarithm of the partition coefficient of the neutral form, usually between octanol and water. Read a low logP as lower lipophilicity.

The subject of data set [1] is Rattus norvegicus. The data set is described as follows: Dose-dependent reduction of blood pressure in spontaneously hypertensive rats administered orally (antihypertensive effect). The following applies: po. The data set is classed as functional.
In data set [2] the target is T1, Type-1 angiotensin II receptor (Bos taurus, UniProt P25104).
T1 sequence (P25104 whole entry): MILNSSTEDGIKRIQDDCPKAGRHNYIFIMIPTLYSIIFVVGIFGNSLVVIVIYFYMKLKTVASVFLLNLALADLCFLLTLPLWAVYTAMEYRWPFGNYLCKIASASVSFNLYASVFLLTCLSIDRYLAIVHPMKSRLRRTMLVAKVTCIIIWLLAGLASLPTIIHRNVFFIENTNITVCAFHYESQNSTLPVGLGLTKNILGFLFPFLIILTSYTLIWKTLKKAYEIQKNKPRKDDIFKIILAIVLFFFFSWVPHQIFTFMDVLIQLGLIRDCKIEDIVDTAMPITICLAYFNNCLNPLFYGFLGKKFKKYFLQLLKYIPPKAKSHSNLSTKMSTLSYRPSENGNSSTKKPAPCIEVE
The data set is described as follows: Displacement of [125 I]-AII (0.2 nM) from bovine adrenal cortical membrane angiotensin II (AII) receptor at 10e-7 M.

For data set [3], the system named is Rattus norvegicus. The data set is described as follows: Inhibitory activity against the pressor response induced by Angiotensin II (AII) in conscious rats, at 1 mg/kg p.o. at 7 hr. As to conditions: route oral. The data set is classed as functional.
Data set [4] deals with Rattus norvegicus. The data set is described as follows: Inhibitory activity against the pressor response induced by Angiotensin II (AII) in conscious rats, at 1 mg/kg p.o. at 3h. The data set is classed as functional. The following applies: route oral.
A short description of data set [5]: Percent oral bioavailability examined in rats. The data set is classed as ADME, organism-based. As to conditions: rat, in vivo.
Data set [6] concerns Rattus norvegicus. The data set is described as follows: Tested for dose-dependent inhibition of Angiotensin II (AII)-induced pressor response at more than 0.01 mg/kg, p.o. The following applies: route oral, read-out: ID50 (the source's name). The data set is classed as functional.
For data set [7], the species on record is Rattus norvegicus. The data set is described as follows: pD2 value of compound was determined. The data set is classed as functional.
Data set [8] in a line: Partition coefficient (logP). The data set is classed as physicochemical. The following applies: octanol/water.
For data set [9], the system named is Rattus norvegicus. The data set is described as follows: Inhibitory activity against the pressor response induced by angiotensin II (AII) in conscious rats, at 1 mg/kg p.o. at 3h. The data set is classed as functional. The following applies: route oral.
Data set [10] deals with Rattus norvegicus. The data set is described as follows: Inhibitory activity against the pressor response induced by angiotensin II (AII) in conscious rats, at 1 mg/kg p.o. at 7 hr. The data set is classed as functional. The following applies: route oral.

With `CCOc1nc2cccc(C(=O)OC(C)OC(=O)OC3CCCCC3)c2n1Cc1ccc(-c2ccccc2-c2nn[nH]n2)cc1` (stereo not given) [CANDESARTAN CILEXETIL], the ED25 in the data set with Rattus norvegicus [1] was found to be 0.68 mg/kg.

Take `CCCSc1nc2cccc(C(=O)O)c2n1Cc1ccc(-c2ccccc2-c2noc(O)n2)cc1`: the IC50 in data set [2] stood at 0.85 µM. Further, the values for the inhibition in vivo at 1 mg/kg in the data set with Rattus norvegicus [3] and with Rattus norvegicus [4] were 100% and 80%, respectively.

Take `CCOc1nc2cccc(C(=O)O)c2n1Cc1ccc(-c2ccccc2-c2noc(=O)[nH]2)cc1` [AZILSARTAN]: the bioavailability in data set [5] was determined as 20%. In addition, the IC50 in data set [2] turned out to be 0.42 µM. This compound had an ED25 with Rattus norvegicus [1] of 0.4 mg/kg. In the data set on Rattus norvegicus [6], the ED50 stood at 0.06 mg/kg. Moreover, the inhibition in vivo at 1 mg/kg in the data set on Rattus norvegicus [3] and with Rattus norvegicus [4] was 100% throughout. The compound also returned a pD2 in the data set listed under Rattus norvegicus [7] of 9.93. Besides, the logP in data set [8] stood at 0.9.

Consider `CSc1nc2cccc(C(=O)O)c2n1Cc1ccc(-c2ccccc2-c2noc(O)n2)cc1`, for which the IC50 in [2] is 0.39 µM. Moreover, the inhibition in vivo at 1 mg/kg with Rattus norvegicus [3] and in the data set on Rattus norvegicus [4] was 100% each time.

Turning to `CCOc1nc2cccc(C(=O)O)c2n1Cc1ccc(-c2ccccc2-c2nnn[nH]2)cc1` [CANDESARTAN], the inhibition in vivo at 1 mg/kg in the data set with Rattus norvegicus [9] worked out at 100%; with Rattus norvegicus [10], 92%. The pD2 in the data set listed under Rattus norvegicus [7] was found to be 9.97. In [8], this compound came in with a logP of 0.32.

With `CCSc1nc2cccc(C(=O)O)c2n1Cc1ccc(-c2ccccc2-c2noc(O)n2)cc1`, the IC50 in [2] stood at 0.48 µM. Moreover, the results for the inhibition in vivo at 1 mg/kg in the data set with Rattus norvegicus [3] and in the data set on Rattus norvegicus [4] were 100% and 83%, respectively.

Take `CCNc1nc2cccc(C(=O)O)c2n1Cc1ccc(-c2ccccc2-c2noc(O)n2)cc1`: the IC50 in data set [2] was 0.042 µM. Moreover, the inhibition in vivo at 1 mg/kg was determined as 6% with Rattus norvegicus [3] and 25% in the data set on Rattus norvegicus [4].

Consider `CCCCc1nc(Cl)c(CO)n1Cc1ccc(-c2ccccc2-c2nnn[nH]2)cc1` [LOSARTAN], for which the inhibition in vivo at 1 mg/kg in the data set on Rattus norvegicus [9] turned out to be 21%; in the data set with Rattus norvegicus [10] it was 34%.

In the case of `CCCOc1nc2cccc(C(=O)O)c2n1Cc1ccc(-c2ccccc2-c2noc(O)n2)cc1`, the IC50 in [2] came out at 0.79 µM. Further, the inhibition in vivo at 1 mg/kg with Rattus norvegicus [3] and in the data set with Rattus norvegicus [4] was 100% in each case.

On to `CCCCc1nc2cccc(C(=O)O)c2n1Cc1ccc(-c2ccccc2-c2noc(O)n2)cc1`, for which the IC50 in data set [2] stood at 0.62 µM. Besides, the values for the inhibition in vivo at 1 mg/kg in the data set with Rattus norvegicus [3] and in the data set with Rattus norvegicus [4] were 64% and 68%, respectively.

In the case of `CNc1nc2cccc(C(=O)O)c2n1Cc1ccc(-c2ccccc2-c2noc(O)n2)cc1`, the IC50 in data set [2] is 0.26 µM. Further, the results for the inhibition in vivo at 1 mg/kg with Rattus norvegicus [3] and in the data set with Rattus norvegicus [4] were 13% and 14%, respectively.

`CCCc1nc2cccc(C(=O)O)c2n1Cc1ccc(-c2ccccc2-c2noc(O)n2)cc1` yielded an IC50 in data set [2] of 0.42 µM. Further, the inhibition in vivo at 1 mg/kg with Rattus norvegicus [3] stood at 88%; in the data set on Rattus norvegicus [4], 100%.

In data set [2], `CCc1nc2cccc(C(=O)O)c2n1Cc1ccc(-c2ccccc2-c2noc(O)n2)cc1` registered an IC50 of 0.31 µM. Also, the values for the inhibition in vivo at 1 mg/kg with Rattus norvegicus [10] and in the data set with Rattus norvegicus [4] were 67% and 88%, respectively.

As for `COc1nc2cccc(C(=O)O)c2n1Cc1ccc(-c2ccccc2-c2noc(O)n2)cc1`, the IC50 in data set [2] came out at 0.36 µM. The inhibition in vivo at 1 mg/kg turned out to be 88% in the data set on Rattus norvegicus [3] and 90% with Rattus norvegicus [4].
